Measurements taken from article PMC10398685 (ACS Omega, 2023).

Experiments:
Type in all cases: in vitro ADME
[1] = Steady-state intracellular uptake in Calu-3 cells; details: human, Calu-3 cells; Calu-3, 60 min incubation, 50 μM at t = 0; read-out: Kp (intracellular accumulation ratio IC/EC) (converted)
From the text: (§1) While an enzymatic MTase assay represents a valuable fast screening platform providing the information that can be directly used for SAR analyses, it is not fully predictive for the compounds’ activity in whole cells. In order to verify the ability of the compounds to reach the intracellular compartment, we measured the steady-state accumulation of representative compounds in intact CCRF-CEM, VERO-E6, and Calu-3 cells (Tables 3 and S2). […] Compound 12q was almost completely cleared from the medium after 60 min incubation with the cells rendering it among the most permeable compounds of the series based on Kp values. It should be noted that the apparent intracellular concentration of the compounds may be biased by their potential metabolism. Therefore, we decided to subject the selected derivatives to in vitro stability studies. […]
(§2) methyltransferase activity as counts per minute (CPM). The CPM measurements in the absence of compound (5% DMSO) for each enzyme was defined as 100% activity.
(§3) 3.3. Intracellular Uptake
(§4) Steady-state cellular uptake was measured in CCRF-CEM cells (ATCC, CRL-119), VERO-E6 cells (ATCC, CRL-1586) and Calu-3 cells (HTB-55), respectively. Suspension cells (CCRF-CEM) were treated as follows: Prior to the experiment, cells were washed by centrifugation (250 x g, 5 min) in prewarmed (37 °C) serum-free RPMI medium and resuspended in the same vehicle to a concentration of 2 x 10^7 cells per mL. The cell suspension was distributed into the microtubes in 500 μL aliquots (10^7 cells), and the uptake process was initiated by the addition of 2.5 μL of the 10 mM DMSO solutions of the compounds (50 μM final conc.). Samples were incubated for 60 min at 37 °C in a CO 2 incubator using a rotary stirrer. The uptake was terminated by centrifugation at 900 x g for 5 min, at +4 °C. The medium was stored at −20 °C for later analysis of the extracellular concentration of the compounds. The cells were washed two times with 1 mL PBS (900 x g, 5 min, +4 °C), and also stored at −20 °C for subsequent analysis of the intracellular concentration of the compounds. At the day of the analysis, both media and the pelleted cells were quickly thawed. The cell pellets were extracted with 200 μL of ice-cold methanol by vigorous shaking, further diluted 1:1 with water and centrifuged at 20 000 x g for 10 min. As for the media samples, 10 μL aliquots were extracted with 990 μL of 50% methanol. The samples were then transferred to ECHO® -compatible 384-well plates and the amount of analytes were quantified by the ECHO -MS® System (Sciex) where acoustic droplet ejection module is coupled with Sciex 6500® triple quadrupole mass spectrometer operating with an electrospray ionization source. Spectrometer was run in the multiple reaction monitoring (MRM) mode. When necessary, the processed samples were further diluted in 50% methanol to fit in the calibration range. Calibration curves of the compounds in 50% methanol were measured alongside the samples within the same run. The ra tio between the total compound concentration in the cells and compound concentration in the medium (K p) at t=60 min was calculated according to: Kp = (Acell / Vcell) / Cmedium, where Acell is the amount of compound in the cell lysate, Vcell is the CCRF-CEM cell volume (3.38 μL/10^7 cells)16 and Cmedium is the compound concentration in the medium sample after correcting for sample dilution. Experiments were performed in duplicates.
(§5) For adherent cells (Vero E6 and Calu-3), the workflow was modified as follows: Cells were seeded on 6-well plates at a concentration of […] and 8.2 x 10^5 cells/well for Vero E6 and Calu-3, respectively, in 3 mL of serum-free culture media. The cells were left to attach overnight, the medium was then aspirated and replenished with 2 mL of fresh media containing the compounds (50 µM final conc). After 60 min at 37 °C the media was aspirated and the cells were washed twice with 1 mL of PBS. Then, 1 mL of fresh PBS was added and the cells were […]

Calu-3 cells = assay: Steady-state intracellular uptake in Calu-3 cells; details: Calu-3, 60 min incubation, 50 μM at t = 0
From the text: as §1, §2, §3, §4, §5

[2] = Caco-2 permeability assay; details: human; for recovery at 3 h, 5 µM / Papp A→B at 3 h, 5 µM / Papp B→A at 3 h, 5 µM: Caco-2, 5 µM; for Papp A→B at 3 h, 5 µM / Papp B→A at 3 h, 5 µM: pH 7.4/7.4, 3 h; for efflux ratio at 3 h, 5 µM: Caco-2, (Papp B-A)/(Papp A-B)
Experimental: (§6) 3.6. Caco-2 permeability assay
(§7) Transepithelial bi-directional transport of tested compounds (5 µM, pH 7.4/7.4) across the Caco-2 monolayers was studied using the BD BioCoat HTS Caco -2 assay system (BD Biosciences, Bedford, MA) as described in detail elsewhere.17 Aliquots were collected from the donor and acceptor compartment at the end of transport period (3 h), integrity of monolayers were verified using Lucifer Yellow dye and the compounds were quantified using LC-MS/MS (Sciex 6500® triple quadrupole). The apparent permeability coefficient (Papp) was calculated from the following equation: Papp = (dQ / dt) / C0 * A, where dQ/dt is the rate of absorption of the drug across the cells, C0 is the donor compartment concentration at time zero, and A is the area of the monolayer. Efflux ratio was expressed as (Papp B-A) / (Papp A-B). Recovery (%) was determined as (total compound mass in donor and receiver compartments at the end of the incubation / initial compound mass in the donor compartment) x 100.

Caco-2 monolayers = assay: Caco-2 permeability assay; details: Caco-2, 5 µM, pH 7.4/7.4, 3 h
Experimental: as §6, §7

Row | Structure (SMILES) | Kp at 1 h, 50 µM [1] | EC (extracellular concentration in the media at t = 60 min) ± sd (Calu-3 cells) [µM] | recovery at 3 h, 5 µM [2] [%] | Papp A→B at 3 h, 5 µM [2] [×10⁻⁶ cm/s] | Papp B→A at 3 h, 5 µM [2] [×10⁻⁶ cm/s] | efflux ratio at 3 h, 5 µM [2] | IC (intracellular concentration in the cells at t = 60 min) ± sd (Calu-3 cells) | Papp B-A (Caco-2 monolayers)
1 | COc1ccc(S(=O)(=O)N(C)C[C@H]2O[C@@H](n3cc(C#Cc4cccnc4)c4c(N)ncnc43)[C@H](O)[C@@H]2O)cc1C#N [Compound 12s] | 106 | 14.7 ± 0.8 | 3 | 0.4 ± 0.3 | 0.3 ± 0.1 | 1.3 |  | 
2 | CCN(C[C@H]1O[C@@H](n2cc(C#Cc3cccnc3)c3c(N)ncnc32)[C@H](O)[C@@H]1O)S(=O)(=O)c1ccc(OC)c(C#N)c1 [Compound 12l] |  |  | 17 | 0.1 | 0.1 | 0.9 |  | 
3 | CCN(C[C@H]1O[C@@H](n2cc(C#Cc3cnc4ccccc4c3)c3c(N)ncnc32)[C@H](O)[C@@H]1O)S(=O)(=O)c1ccc(OC)c(C#N)c1 [Compound 12e] | 1770 | 5 ± 4 |  |  |  |  |  | 
4 | COc1ccc(S(=O)(=O)N(C)C[C@H]2O[C@@H](n3cc(C#Cc4ccc(C(N)=O)cc4)c4c(N)ncnc43)[C@H](O)[C@@H]2O)cc1C#N [Compound 12r] | 1250 | 4.0 ± 0.2 | 1 | 0.1 ± 0.1 | 0.1 | 0.1 |  | 
5 | COc1ccc(S(=O)(=O)N(C)C[C@H]2O[C@@H](n3cc(C#Cc4cnc5ccccc5c4)c4c(N)ncnc43)[C@H](O)[C@@H]2O)cc1C#N [Compound 12q] |  | 5.6 ± 5.7 | 4 | 0.2 |  | 0.4 | 89,640 ± 6514 μM | 0.0 ± 0.0 x10-6 (cm/s)
